Measurements published in patent US20240277873A1, “ULTRABRIGHT […] PROBES FOR DETECTION AND IMAGING” (Nanyang Technological University, priority 2021, published 2024).
Like-named read-outs stand apart in the source and are kept apart here.

Tests used:
[1] = cited from earlier work
[2] = Chemiluminescence and fluorescence changes of probes toward O2•- (KO2): response, selectivity, LOD; conditions: for LOD against O2•-: KO2 0-1000 nM, LOD=3σ/k; for LOD against O2•- / fluorescent signal enhancement upon cleavage by O2•-: PBS (10 mM, pH 7.4, 10% DMSO), 37° C.; for chemiluminescence intensity increase after addition of O2•- / fluorescent signal enhancement upon cleavage by O2•-: probe 20 μM; for chemiluminescence intensity increase after addition of O2•-: O2•- 40 μM for 10 s, PBS pH 7.4, 37° C., at 480 / 520 / 580 / 540 nm; for fluorescent signal enhancement upon cleavage by O2•-: at ~486 / 532 / 582 / 542 nm
Protocol: The chemiluminescence and fluorescence changes of BOPDSu, BTPDSu, MBPDSu and MPDSu (20 μM) were recorded at different concentrations of RONS (40 μM) and other metal ions (100 μM). BOPDSu, BTPDSu, MBPDSu and MPDSu (20 μM) in phosphate buffered saline (PBS) buffer were treated in the presence of different RONS (40 μM), and metal ions (Mg^2+, Ca^2+ or Fe^2+, 100 μM) at 37° C.
The chemiluminescence signals were recorded at different concentrations of KO2 (0, 50, 100, 250, 500 and 1000 nM). Then, the limit of detection (LOD) of BOPDSu, BTPDSu, MBPDSu and MPDSu were calculated by chemiluminescence intensities based on the equation: LOD=3σ/k, where σ is the standard deviation of emission intensity of blank, and k is the slope of plot of emission intensities.

[3] = Chemiluminescence kinetic studies (half-lives, CL emission) of caged probes in the presence of O2•-; format: physicochemical; conditions: caged probe after activation, in PBS (10% DMSO) at 37° C.
Protocol: FIG. […]
[…] The chemiluminescent intensities were plotted as a function of time.
[…] The chemiluminescence signal was recorded by the microplate reader to calculate half-lives of BTPDSu at different pHs.

[4] = Chemiluminescence quantum yield in the presence of O2•-; format: physicochemical; conditions: probe 20 μM, O2•- 100 μM, PBS (10 mM, pH 7.4, 10% DMSO), 37° C.
Protocol: (§1) The chemiluminescence QYs of BOPDSu, BTPDSu, MBPDSu, and MPDSu (20 μM) were measured in the presence of O2^•- (100 μM) in PBS (10 mM, pH 7.4, 10% DMSO) at 37° C. The fluorescence QYs were determined by using Rhodamine B as a standard dye (QY 36%) in PBS (10 mM, pH 7.4) (X. Zhen et al., ACS Nano 2016, 10, 6400-6409). The fluorescence QY of AMPD was obtained from the literature (O. Green et al., ACS Cent. Sci. 2017, 3, 349-358).

[5] = Fluorescence quantum yield of activated probes; format: physicochemical; conditions: Rhodamine B as standard (QY 36%), PBS (10 mM, pH 7.4)
Protocol: as §1

dorsal skins of mice = assay: Histopathologic, immunohistochemical and flow cytometry analyses of dorsal skins (IMQ psoriasis model); format: in vivo, BALB/c mice
Protocol: The control group was treated with Vaseline (50 mg/d) and the IMQ-treatment group was applied with IMQ cream (60 mg/d, 5%) once a day. […] Probe BTPDNe (10 uM, 1 mM in DMSO) was thoroughly mixed with Aquaphor (˜10 mg) and applied for psoriasis imaging, followed by poly(methyl methacrylate) microneedle treatment for 1 min. Then, chemiluminescent signals at different time-points (0, 3, 5, 10, 15, 30, 45 and 60 min) after probe-treatment were recorded using IVIS system bioluminescence with acquiring time of 180 s. Until the third day, all the mice were sacrificed to collect tissue and blood for further experiments (hematoxylin and eosin (H&E) staining and flow cytometry analysis) as described in Example 11.
The dorsal skin samples were separated and soaked in 4% paraformaldehyde (4% PFA) for 12 h and immersed in 30% sucrose solution. The skin samples were stained by hematoxylin and eosin (H&E). Then, the samples were flash-frozen by liquid nitrogen, immobilized with optimal cutting temperature compound, and section slices ([…]). The thickness of epidermis was observed under a microscope (Nikon ECLIPSE 80i microscope). APC-Ly6G, as a neutrophil marker, was used to stain neutrophil cells and DAPI was applied for cell nucleus staining. The immunofluorescence was observed by Nikon ECLIPSE 80i microscope.
After performing in vivo chemiluminescence imaging of neutrophils using BTPDNe in psoriasis-bearing mice with 2 day IMQ treatment, fresh section slices from dorsal skins were stained with Ly6G. Immunofluorescence imaging of slices with activated BTPDNe in green color was observed upon excitation at 405 nm and emission at 500-550 nm, while red color from Ly6G was observed upon excitation from 633-647 nm and emission at 660 nm. The immunofluorescence imaging was acquired by Nikon ECLIPSE 80i microscope.

[6] = uncaged, in PBS (10% DMSO), pH 7.4, 37° C.
[7] = uncaged, in PBS (5% DMSO), pH 7.4, 37° C.
[8] = uncaged, in PBS (10% DMSO), pH 10, 37° C.
[9] = uncaged, in PBS, pH 7.4, 10% FBS

## COC1(c2cc(O)cc3oc(=O)ccc23)OOC12C1CC3CC(C1)CC2C3 (stereo not drawn)
[1]; [6]
  CL Emission: 465 nm

## COC1(c2cccc(O)c2)OOC12C1CC3CC(C1)CC2C3 (stereo not drawn)
[1]; uncaged, in o-Xylene at 25° C.
  CL Emission: ~460 nm

## COC1(c2cccc(O)c2Cl)OOC12C1CC3CC(C1)CC2C3 (stereo not drawn)
[1]; [7]
  CL Emission: 470 nm
[1]; uncaged, in PBS (5% DMSO), pH 10, 37° C.
  CL Emission: 470 nm

## COC1(c2ccc(/C=C/C(=O)O)c(O)c2Cl)OOC12C1CC3CC(C1)CC2C3 (stereo not drawn)
[1]; [6]
  CL Emission: 510 nm
[1]; [8]
  CL Emission: 510 nm

## COC1(c2ccc(/C=C/c3ccc(C(=O)O)cc3)c(O)c2Cl)OOC12C1CC3CC(C1)CC2C3 (stereo not drawn)
[1]; [6]
  CL Emission: 535 nm
[1]; [8]
  CL Emission: 535 nm

## COC1(c2ccc(/C=C/c3ccc(CC(=O)O)cc3)c(O)c2Cl)OOC12C1CC3CC(C1)CC2C3 (stereo not drawn)
[1]; [6]
  CL Emission: 500 nm
[1]; [8]
  CL Emission: 500 nm

## COC1(c2ccc(/C=C/c3ccc(OCC(=O)O)cc3)c(O)c2Cl)OOC12C1CC3CC(C1)CC2C3 (stereo not drawn)
[1]; [6]
  CL Emission: 490 nm
[1]; [8]
  CL Emission: 490 nm

## COC1(c2cc(O)ccc2/C=C/C2=CC(=C(C#N)C#N)c3ccccc3O2)OOC12C1CC3CC(C1)CC2C3 (stereo not drawn)
[1]; [9]
  CL Emission: 660 nm

## COC1(c2cc(O)c(/C=C/C(=O)O)cc2/C=C/C2=CC(=C(C#N)C#N)c3ccccc3O2)OOC12C1CC3CC(C1)CC2C3 (stereo not drawn)
[1]; [9]
  CL Emission: 690 nm

## CC(=O)Oc1cc(C23OCC(C)(C)C2(C(C)(C)C)OO3)cc2ccc(=O)oc12 (stereo not drawn)
[1]; caged, after activation, in DMSO with 170 μM TBAF at 25° C.
  CL Emission: 470 nm

## COC1(c2ccc(/C=C/C#N)c(OC(=O)c3ccccc3P(c3ccccc3)c3ccccc3)c2Cl)OOC12C1CC3CC(C1)CC2C3 (stereo not drawn)
[1]; caged, after activation, in 20 mM HEPES or PBS (pH 7.4), 1% DMSO
  CL Emission: 525 nm

## COC1(c2ccc(/C=C/C#N)c(OCc3ccc4c(c3)C(=O)C(=O)N4)c2Cl)OOC12C1CC3CC(C1)CC2C3 (stereo not drawn)
[1]; caged, after activation, in 20 mM HEPES (pH 7.4), 1% DMSO
  CL Emission: 525 nm

## 1-methylpyridinium-benzothiazole-phenoxyl-dioxetane [MBPDSu]
[2]
  LOD against O2•-: 6.3 nM
  chemiluminescence intensity increase after addition of O2•-: 2590 times
  fluorescent signal enhancement upon cleavage by O2•-: 40.5 folds
[3]
  CL Emission: 580 nm
[4]
  ΦCl, chemiluminescence QY: 0.045 einsteins/mol

## COC(=O)c1ccc(-c2nc3ccccc3o2)c(O)c1 [ABOPD]
[5]
  ΦFl, fluorescence QY of activated probe: 33.0%

## COC(=O)c1ccc(-c2nc3ccccc3s2)c(O)c1 [ABTPD]
[5]
  ΦFl, fluorescence QY of activated probe: 24.1%

## COC(=O)c1cc(O)c(-c2nc3ccccc3s2)cc1/C=C/c1cc[n+](C)cc1.[I-] [AMBPD]
[5]
  ΦFl, fluorescence QY of activated probe: 7.5%

## CC(C)Cn1cnc2c(N)nc3ccccc3c21 [IMQ, Imiquimod]
Dorsal skins of mice; day 2, flow cytometry
  population of NE-expressing neutrophils in skins relative to CsA-treated group: 2.62 times
  population of NE-expressing neutrophils in skins relative to control group: 2.03 times
Dorsal skins of mice; dorsal skins, histology and immunohistochemistry, vs control group
  skin thickness and neutrophil (CD11c+, Ly6G+) population / infiltration: increased thickness and neutrophil (CD11c+, Ly6G+) infiltration

## COC(=O)/C=C/c1ccc(C2(OC)OOC23C2CC4CC(C2)CC3C4)c(Cl)c1O (stereo not drawn) [drawing 49]
[1]; [6]
  CL Emission: 540 nm
[1]; [8]
  CL Emission: 550 nm

## COC(=O)/C=C/c1ccc(C2(OC)OOC23C2CC4CC(C2)CC3C4)c(Cl)c1O (stereo not drawn) [drawing 50]
[1]; [7]
  CL Emission: 540 nm

## COC1(c2ccc(/C=C/C#N)c(O)c2Cl)OOC12C1CC3CC(C1)CC2C3 (stereo not drawn) [drawing 51]
[1]; [7]
  CL Emission: 525 nm

## COC1(c2ccc(/C=C/C#N)c(O)c2Cl)OOC12C1CC3CC(C1)CC2C3 (stereo not drawn) [drawing 52]
[1]; [6]
  CL Emission: 525 nm
[1]; [8]
  CL Emission: 525 nm

## benzoxazole-phenoxyl-dioxetane [BOPDSu]
[2]
  LOD against O2•-: ~5.7 nM
  chemiluminescence intensity increase after addition of O2•-: 3291 times
  fluorescent signal enhancement upon cleavage by O2•-: 45.3 folds
[4]
  ΦCl, chemiluminescence QY: 0.189 einsteins/mol

## methyl acrylate-phenoxyl-dioxetane [MPDSu, reference compound]
[2]
  LOD against O2•-: 13.6 nM
  chemiluminescence intensity increase after addition of O2•-: 2624 times
  fluorescent signal enhancement upon cleavage by O2•-: 11.2 folds
[4]
  ΦCl, chemiluminescence QY: 0.023 einsteins/mol
